Measurements taken from paper PMC5432571 (Frontiers in Molecular Neuroscience, 2017).
Where two headings read alike, the source gives them in different places.

How the values were obtained:
α3 GlyR = target: T1, α3 GlyR (Homo sapiens, UniProt O75311); test: Whole-cell patch-clamp of glycine-induced currents, α3 GlyR expressed in CHO cells; type: cell-based; conditions: glycine 100 μM; for inhibition at 30 µM / inhibition at 300 µM: CHO, long application protocol, read-out: inhibition of α3 GlyR-mediated currents; for inhibition at 30 µM: NFA 30 μM; for inhibition at 300 µM: NFA 300 μM
T1 construct: expressed in transfected cells; host or cells: CHO cells
T1 sequence (O75311 34-464): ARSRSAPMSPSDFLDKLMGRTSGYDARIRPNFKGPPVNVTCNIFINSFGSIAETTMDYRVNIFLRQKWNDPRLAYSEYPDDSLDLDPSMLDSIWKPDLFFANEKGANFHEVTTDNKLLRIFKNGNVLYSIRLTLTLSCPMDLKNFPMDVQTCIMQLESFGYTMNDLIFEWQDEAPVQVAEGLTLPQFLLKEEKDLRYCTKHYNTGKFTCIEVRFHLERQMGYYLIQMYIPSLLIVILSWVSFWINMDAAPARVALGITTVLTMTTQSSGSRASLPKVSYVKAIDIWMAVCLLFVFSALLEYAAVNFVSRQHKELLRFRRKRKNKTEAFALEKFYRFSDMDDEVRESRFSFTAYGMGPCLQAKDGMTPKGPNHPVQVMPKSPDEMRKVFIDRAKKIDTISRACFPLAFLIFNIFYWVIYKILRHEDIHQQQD
Protocol: (§1) The experiments were carried out on cultured Chinese hamster ovary (CHO) cells obtained from the American Type Tissue Culture Collection (ATCC, Molsheim, France) that were maintained in culture conditions as previously described (Mukhtarov et al., [2013]; Maleeva et al., [2015]).
(§2) One day before transfection, cells were plated on the cover slips (12 mm in diameter) and placed inside 35-mm cell culture dishes with 2 ml of medium. Transfection was performed using the Lipofectamine 3000 protocol (Life Technology, USA). To facilitate identification of transfected cells a green fluorescent protein (GFP) was added to the transfection mixture. For expression of functional heteromeric receptors, cells were simultaneously transfected with cDNAs of α and β subunits in the ratio 1:10. Three hours after the initial exposure of cells to the cDNAs the culture medium was replaced with that containing strychnine (1 μM), which prevents spontaneous activation of GlyRs. Electrophysiological recordings were performed in the fluorescent cells 24–72 h after transfection.
(§3) Whole-cell and outside-out recordings were performed at room temperature (20–25°C) using an EPC-9 amplifier (HEKA Elektronik, Germany). Cells were continuously superfused with external solution containing (mM): NaCl 140, CaCl2 2, KCl 2.8, MgCl2 4, HEPES 20, glucose 10; pH 7.4; 320–330 mOsm. Intracellular solution used for filling recording patch pipettes contained (mM): CsCl 140, CaCl2 6, MgCl2 2, MgATP 2, NaGTP 0.4, HEPES/CsOH 10, BAPTA (tetrapotassium salt) 2; pH 7.3; 290 mOsm. Two different protocols of solutions application were used in this study. […] A “ramp protocol” implies the gradual change of Vhold alternately from −80 to +80 mV and from +80 to −80 mV during 1 s, Vhold was fixed at −80 or +80 mV at the beginning and at the end of the ramp for 500 ms (Figure 2B).
(§4) Recording pipettes were pulled from borosilicate glass capillaries (Harvard Apparatus Ltd, USA) and had resistances of 5–10 MOhm. For the rapid replacement of the solutions, the fast application system was used. Three parallel rectangular tubes (100 × 100 μm) were positioned 40–50 μm above the recorded cell. The movement of the tubes was controlled by a computer-driven fast exchange system (SF 77A Perfusion Fast-Step, Warner, USA) allowing a 10–90% solution exchange in 3–5 ms, as measured by open electrode controls (1/10 external solution/water). Cells with low input resistance (<150 MOhm) and a rapid run-down (>30% with repetitive application) were excluded from analysis.
(§5) Electrophysiological recordings were performed using PatchMaster (HEKA Electronic, Germany) software.
It is well documented that α3 GlyRs rapidly desensitize (Nikolic et al., [1998]) and this complicates accurate estimation of the NFA blocking potency.

α1β GlyR = target: T2, α1β GlyR (Homo sapiens, UniProt P23415+P48167); test: Whole-cell patch-clamp of glycine-induced currents, heteromeric α1β GlyR expressed in CHO cells; type: cell-based; conditions: glycine 30 μM
T2 construct: expressed in transfected cells; host or cells: CHO cells
T2 sequence (P23415 29-449 isoform P23415-2 limits assumed): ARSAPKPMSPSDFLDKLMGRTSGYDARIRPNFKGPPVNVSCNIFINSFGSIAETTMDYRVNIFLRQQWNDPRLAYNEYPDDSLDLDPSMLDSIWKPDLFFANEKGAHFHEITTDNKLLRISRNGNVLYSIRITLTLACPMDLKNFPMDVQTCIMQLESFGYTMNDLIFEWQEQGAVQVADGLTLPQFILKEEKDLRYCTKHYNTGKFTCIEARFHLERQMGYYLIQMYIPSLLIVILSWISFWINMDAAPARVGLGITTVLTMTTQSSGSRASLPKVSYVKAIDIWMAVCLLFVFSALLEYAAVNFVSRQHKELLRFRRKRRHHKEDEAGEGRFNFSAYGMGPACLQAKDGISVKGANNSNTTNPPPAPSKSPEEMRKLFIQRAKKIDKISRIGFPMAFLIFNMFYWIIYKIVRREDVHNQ
T2 sequence (P48167 23-497): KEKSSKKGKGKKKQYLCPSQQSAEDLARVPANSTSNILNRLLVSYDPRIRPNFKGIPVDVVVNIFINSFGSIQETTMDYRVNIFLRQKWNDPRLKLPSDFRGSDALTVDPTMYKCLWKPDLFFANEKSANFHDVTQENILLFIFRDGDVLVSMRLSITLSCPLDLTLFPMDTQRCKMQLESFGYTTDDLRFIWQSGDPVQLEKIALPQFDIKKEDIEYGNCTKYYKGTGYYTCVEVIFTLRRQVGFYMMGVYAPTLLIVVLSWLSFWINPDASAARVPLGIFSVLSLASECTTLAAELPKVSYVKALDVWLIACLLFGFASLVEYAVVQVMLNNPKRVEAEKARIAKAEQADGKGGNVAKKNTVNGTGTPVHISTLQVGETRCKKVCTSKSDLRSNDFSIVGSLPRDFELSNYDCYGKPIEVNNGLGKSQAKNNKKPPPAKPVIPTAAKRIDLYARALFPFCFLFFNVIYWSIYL
Protocol: as §1, §2, §3, §4, §5

α2β GlyR = target: T3, α2β GlyR (Homo sapiens, UniProt P23416+P48167); test: Whole-cell patch-clamp of glycine-induced currents, heteromeric α2β GlyR expressed in CHO cells; type: cell-based; conditions: glycine 30 μM
T3 construct: expressed in transfected cells; host or cells: CHO cells
T3 sequence (P23416 28-452 isoform P23416-2 limits assumed): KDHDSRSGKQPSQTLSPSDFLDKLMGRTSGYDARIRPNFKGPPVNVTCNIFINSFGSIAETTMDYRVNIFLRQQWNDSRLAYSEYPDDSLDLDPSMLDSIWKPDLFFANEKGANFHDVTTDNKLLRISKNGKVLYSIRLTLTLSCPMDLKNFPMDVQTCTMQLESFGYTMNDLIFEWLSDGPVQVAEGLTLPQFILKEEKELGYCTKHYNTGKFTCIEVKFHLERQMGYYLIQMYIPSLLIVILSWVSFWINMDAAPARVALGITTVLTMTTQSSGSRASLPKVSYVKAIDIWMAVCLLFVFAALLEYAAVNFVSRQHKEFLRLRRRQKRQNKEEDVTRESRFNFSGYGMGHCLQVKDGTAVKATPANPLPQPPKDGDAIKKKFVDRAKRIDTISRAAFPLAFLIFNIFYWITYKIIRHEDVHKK
T3 sequence (P48167 23-497): as the sequence (P48167 23-497) above
Protocol: as §1, §2, §3, §4, §5

[1] = tested on: ClC-K kidney Cl− channels; set-up: method as in Zifarelli et al., 2010; conditions: biphasic: activates at low concentrations; ref Zifarelli et al., 2010; cited from earlier work
[2] = +30 mV, representative, read-out: NFA IC50 (representative IC50 curve)
[3] = +80 mV, representative, read-out: NFA IC50 (representative IC50 curve)
[4] = −30 mV, representative, read-out: NFA IC50 (representative IC50 curve)
[5] = −80 mV, representative, read-out: NFA IC50 (representative IC50 curve)
[6] = +80 mV, mean ± SEM, read-out: IC50 of NFA

O=C(O)c1cccnc1Nc1cccc(C(F)(F)F)c1 [NFA, Niflumic acid]
IC50 (α3 GlyR; [2]): 23 µM
IC50 (α3 GlyR; [3]): 10 µM
inhibition at 30 µM (α3 GlyR; +30 mV): 62 ± 5%
inhibition at 30 µM (α3 GlyR; −30 mV): 32 ± 4%
inhibition at 300 µM (α3 GlyR; +30 mV): 90 ± 2%
inhibition at 300 µM (α3 GlyR; −30 mV): 86 ± 5%
IC50 (α3 GlyR; MP +80 mV, mean ± SEM, read-out: IC50 of NFA): 16 ± 6 µM
IC50 (α3 GlyR; MP −80 mV, mean ± SEM, read-out: IC50 of NFA): 86 ± 14 µM
IC50 (α3 GlyR; [4]): 78 µM
IC50 (α3 GlyR; [5]): 117 µM
IC50 (α1β GlyR; [2]): 152 µM
IC50 (α1β GlyR; [6]): 150 ± 14 µM
IC50 (α1β GlyR; [3]): 144 µM
IC50 (α1β GlyR; [4]): 200 µM
IC50 (α1β GlyR; [5]): 191 µM
IC50 (α2β GlyR; [2]): 24 µM
IC50 (α2β GlyR; [6]): 20 ± 8 µM
IC50 (α2β GlyR; [3]): 22 µM
IC50 (α2β GlyR; [4]): 47 µM
IC50 (α2β GlyR; −80 mV, mean ± SEM, read-out: IC50 of NFA): 107 ± 37 µM
IC50 (α2β GlyR; [5]): 84 µM
concentrations at which NFA blocks the channels [1]: > 1 mM
